Columns and labels:
[1] = system: HBeAg (surrogate marker for cccDNA) in HepDES19 cells; experiment: Engineered HepDES19 primary screen assay (HBeAg ELISA); type: cell-based, HBV; conditions: Hepatitis B virus, HepDES19, 120 h, read-out: IC50 (HBeAg level, HepDES19 primary screen assay), HepDES19 cells, 5 days compound incubation, HBeAg ELISA
Method in brief: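 IC50 values come from 4-parameter logistic fits of HBeAg ELISA signal, the cccDNA surrogate, with CCK-8 run in parallel for viability. Compounds at half-log dilutions with 1% DMSO were applied for 5 days at 37 °C to HepDES19 cells previously cultured 8 days without Tet.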

[2] = Human microsome stability assay; type: in vitro ADME; conditions: human liver microsomes, 1 μM test compound, 0.5 mg/mL microsomal protein, 37° C., pH 7.4, 0-30 minutes
Method in brief: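 Parent compound remaining was measured by LC-MS/MS at 0, 3, 6, 9, 15 and 30 min, following ACN quench. Reactions held 1 μM compound and 0.5 mg/mL human liver microsomal protein in pH 7.4 phosphate buffer at 37 °C, started by NADPH regeneration (1 mM NADP, 1 mM MgCl2); controls lacked NADPH.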

SMILES | IC50 [1] | Clearance of Human microsome [2]
O=C(O)C1CCC(OCCCOc2cc(C(F)(F)F)ccc2-c2cc(=O)c3cccc(Cl)c3o2)C1 (centres unmarked) [Example C104, 3-[3-[2-(8-chloro-4-oxo-chromen-2-yl)-5-(trifluoromethyl)phenoxy]propoxy]cyclopentanecarboxylic acid] | 4.46 µM | 6.15 mL/min/kg
CN1C(=O)C(C)(C)c2cc(OCCO[C@H]3C[C@@H](C(=O)O)C3)c(-c3cc(=O)c4cccc(Cl)c4o3)cc21 [Example C093, Cis-3-[2-[6-(8-chloro-4-oxo-chromen-2-yl)-1,3,3-trimethyl-2-oxo-indolin-5-yl]oxyethoxy]cyclobutanecarboxylic acid] | 7.79 µM | 6.15 mL/min/kg
COc1cc(OCC2(CC(=O)O)CC2)c(-c2cc(=O)c3cccc(Cl)c3o2)cc1OC [Example A067, 2-[1-[[2-(8-chloro-4-oxo-chromen-2-yl)-4,5-dimethoxy-phenoxy]methyl]cyclopropyl]acetic acid] | 1.68 µM | 6.15 mL/min/kg
COc1cc(OCCO[C@H]2C[C@@H](C(=O)O)C2)c(-c2cc(=O)c3c(O)ccc(Cl)c3o2)cc1OC [Example C098, cis-3-[2-[2-(8-chloro-5-hydroxy-4-oxo-chromen-2-yl)-4,5-dimethoxy-phenoxy]ethoxy]cyclobutanecarboxylic acid] | 8.56 µM | 6.15 mL/min/kg
O=C(O)COCC(O)COc1cc(C(F)(F)F)ccc1-c1cc(=O)c2cccc(Cl)c2o1 (centres unmarked) [Example C115, 2-[3-[2-(8-chloro-4-oxo-chromen-2-yl)-5-(trifluoromethyl)phenoxy]-2-hydroxy-propoxy]acetic acid] | 19.2 µM | 6.15 mL/min/kg
O=c1cc(-c2cc(OC(F)F)c(OC(F)F)cc2OCCO[C@H]2C[C@@H](C(=O)O)C2)oc2c(Cl)cccc12 [Example C087, cis-3-[2-[2-(8-chloro-4-oxo-chromen-2-yl)-4,5-bis(difluoromethoxy)phenoxy]ethoxy]cyclobutanecarboxylic acid] | 6.35 µM | 6.15 mL/min/kg
COc1cc(OC2CC(C(=O)NS(C)(=O)=O)C2)c(-c2cc(=O)c3cccc(Cl)c3o2)cc1OC (centres unmarked) [Example B057, 3-[2-(8-chloro-4-oxo-chromen-2-yl)-4,5-dimethoxy-phenoxy]-N-methylsulfonyl-cyclobutanecarboxamide] | 1.08 µM | 6.15 mL/min/kg
CS(=O)(=O)NC(=O)[C@H]1C[C@H](Oc2cc(C(F)(F)F)ccc2-c2cc(=O)c3cccc(Cl)c3o2)C1 [Example B048-B, Trans-3-[2-(8-chloro-4-oxo-chromen-2-yl)-5-(trifluoromethyl)phenoxy]-N-methylsulfonyl-cyclobutanecarboxamide] | 3.08 µM | 6.15 mL/min/kg
CCOc1ccc(-c2cc(=O)c3c(C(F)(F)F)ccc(Cl)c3o2)c(OCCO[C@H]2C[C@@H](C(=O)O)C2)c1 [Example C095, cis-3-[2-[2-[8-chloro-4-oxo-5-(trifluoromethyl)chromen-2-yl]-5-ethoxy-phenoxy]ethoxy]cyclobutanecarboxylic acid] | 3.29 µM | 9.62 mL/min/kg
O=C(COCCOc1cc(C(F)(F)F)ccc1-c1cc(=O)c2cccc(Cl)c2o1)NS(=O)(=O)C1CC1 [Example C118, 2-[2-[2-(8-chloro-4-oxo-chromen-2-yl)-5-(trifluoromethyl)phenoxy]ethoxy]-N-cyclopropylsulfonyl-acetamide] | 14.7 µM | 6.15 mL/min/kg
Cc1ccc(-c2cc(=O)c3cccc(Cl)c3o2)c(OCC(C)(C)C(=O)O)c1 [Example A063, 3-[2-(8-chloro-4-oxo-chromen-2-yl)-5-methyl-phenoxy]-2,2-dimethyl-propanoic acid] | 1.35 µM | 6.15 mL/min/kg
O=C(O)C1CC(OCCOc2ccccc2-c2cc(=O)c3cccc(Br)c3o2)C1 (stereo in doubt) [Example C046-A, Cis-3-[2-[2-(8-bromo-4-oxo-chromen-2-yl)phenoxy]ethoxy]cyclobutanecarboxylic acid] | 0.192 µM | 6.15 mL/min/kg
O=c1cc(-c2ccccc2OCCO[C@H]2C[C@@H](C(=O)O)C2)oc2c(C(F)(F)F)cccc12 [Example C047-A, Cis-3-[2-[2-[4-oxo-8-(trifluoromethyl)chromen-2-yl]phenoxy]ethoxy]cyclobutanecarboxylic acid] | 16.6 µM | 6.15 mL/min/kg
CC(C)(COc1cc(Br)ccc1-c1cc(=O)c2cccc(Cl)c2o1)CO[C@H]1C[C@@H](C(=O)O)C1 [Example C110-A, cis-3-[3-[5-bromo-2-(8-chloro-4-oxo-chromen-2-yl)phenoxy]-2,2-dimethyl-propoxy]cyclobutanecarboxylic acid] | 0.433 µM | 6.15 mL/min/kg
O=c1cc(-c2ccc(OC(F)(F)F)cc2OCCO[C@H]2C[C@@H](C(=O)O)C2)oc2c(Cl)cccc12 [Example C052-A, Cis-3-[2-[2-(8-chloro-4-oxo-chromen-2-yl)-5-(trifluoromethoxy)phenoxy]ethoxy]cyclobutanecarboxylic acid] | 5.99 µM | 9.08 mL/min/kg
CC(C)(CCCOc1cc(OC(F)(F)F)ccc1-c1cc(=O)c2cccc(Cl)c2o1)C(=O)O [Example A071, 5-[2-(8-chloro-4-oxo-chromen-2-yl)-5-(trifluoromethoxy)phenoxy]-2,2-dimethyl-pentanoic acid] | 6.46 µM | 7.4 mL/min/kg
O=c1cc(-c2c(F)cc(Br)cc2OCCO[C@H]2C[C@@H](C(=O)O)C2)oc2c(Cl)cccc12 [Example C071, Cis-3-[2-[5-bromo-2-(8-chloro-4-oxo-chromen-2-yl)-3-fluoro-phenoxy]ethoxy]cyclobutanecarboxylic acid] | 10.8 µM | 6.15 mL/min/kg
CC(C)(COc1cc(OC(F)(F)F)ccc1-c1cc(=O)c2cccc(Cl)c2o1)C(=O)O [Example A061, 3-[2-(8-chloro-4-oxo-chromen-2-yl)-5-(trifluoromethoxy)phenoxy]-2,2-dimethyl-propanoic acid] | 15.9 µM | 8.78 mL/min/kg
O=c1cc(-c2ccc(C(F)(F)F)cc2O[C@H]2C[C@H](C(=O)O)C2)oc2c(Cl)ccc(O)c12 [Example B038-B, Trans-3-[2-(8-chloro-5-hydroxy-4-oxo-chromen-2-yl)-5-(trifluoromethyl)phenoxy]cyclobutanecarboxylic acid] | 0.312 µM | 9.59 mL/min/kg
O=c1cc(-c2cc(F)c(Br)cc2OCCO[C@H]2C[C@H](C(=O)O)C2)oc2c(Cl)cccc12 [Example C044-B, Trans-3-[2-[5-bromo-2-(8-chloro-4-oxo-chromen-2-yl)-4-fluoro-phenoxy]ethoxy]cyclobutanecarboxylic acid] | 1.57 µM | 9.33 mL/min/kg
COc1cc(OCC(=O)O)c(-c2cc(=O)c3cccc(Cl)c3o2)cc1OC [Example A050, 2-[2-(8-chloro-4-oxo-chromen-2-yl)-4,5-dimethoxy-phenoxy]acetic acid] | 11.8 µM | 6.15 mL/min/kg
O=C(O)[C@H]1C[C@@H](Oc2cc(C(F)(F)F)ccc2-c2cc(=O)c3cccc(Cl)c3o2)CN1S(=O)(=O)c1ccccc1 [Example B088, (2R,4R)-1-(benzenesulfonyl)-4-[2-(8-chloro-4-oxo-chromen-2-yl)-5-(trifluoromethyl)phenoxy]pyrrolidine-2-carboxylic acid] | 1.85 µM | 6.15 mL/min/kg
COc1cc(-c2cc(=O)c3cccc(Cl)c3o2)c(OCCC(=O)O)cc1OCC(F)(F)F [Example A041, 3-[2-(8-chloro-4-oxo-chromen-2-yl)-4-methoxy-5-(2,2,2-trifluoroethoxy)phenoxy]propanoic acid] | 6.06 µM | 6.15 mL/min/kg
Cc1ccc(OCCO[C@H]2C[C@H](C(=O)O)C2)c(-c2cc(=O)c3cccc(Cl)c3o2)c1 [Example C050-B, Trans-3-[2-[2-(8-chloro-4-oxo-chromen-2-yl)-4-methyl-phenoxy]ethoxy]cyclobutanecarboxylic acid] | 0.137 µM | 6.15 mL/min/kg
Cc1ccc(-c2cc(=O)c3cccc(Cl)c3o2)c(OCC(=O)N2CCC[C@H]2C(=O)O)c1 [Example A078, (2S)-1-[2-[2-(8-chloro-4-oxo-chromen-2-yl)-5-methyl-phenoxy]acetyl]pyrrolidine-2-carboxylic acid] | 10.2 µM | 6.15 mL/min/kg
O=c1cc(-c2cc(Cl)c(Br)cc2OCCO[C@H]2C[C@@H](C(=O)O)C2)oc2c(Cl)cccc12 [Example C057-A, Cis-3-[2-[5-bromo-4-chloro-2-(8-chloro-4-oxo-chromen-2-yl)phenoxy]ethoxy]cyclobutanecarboxylic acid] | 5.01 µM | 8.0 mL/min/kg
COc1cc(OCCCOCC(=O)O)c(-c2cc(=O)c3cccc(Cl)c3o2)cc1OC [Example C012, 2-[3-[2-(8-chloro-4-oxo-chromen-2-yl)-4,5-dimethoxy-phenoxy]propoxy]acetic acid] | 5.26 µM | 6.15 mL/min/kg
O=C(O)[C@@H]1C[C@H](Oc2cc(C(F)(F)F)ccc2-c2cc(=O)c3cccc(Cl)c3o2)CN1S(=O)(=O)c1ccccc1 [Example B080, (2S,4S)-1-(benzenesulfonyl)-4-[2-(8-chloro-4-oxo-chromen-2-yl)-5-(trifluoromethyl)phenoxy]pyrrolidine-2-carboxylic acid] | 1.2 µM | 6.15 mL/min/kg

Reference: patent publication US11708344B2, “Flavone derivatives for the treatment and prophylaxis of hepatitis B virus disease” (Hoffmann-La Roche Inc., priority 2018, dated 2023)
